≈ marks a conversion by molar mass, not a printed value. Where two headings read alike, the source gives them in different places.
How the values were obtained:
[1] = target: T1, S. aureus topoisomerase IV (Staphylococcus aureus, UniProt P0C1S7); assay: Topoisomerase IV inhibition assay (Inspiralis, streptavidin-coated plates); assay type: biochemical; details: S. aureus topo IV; for remaining activity at 10 µM: 10 μM compound; for IC50: read-out: IC50
T1 construct: purchased Inspiralis
Description: Inhibitory activities for compounds of the present invention were determined on E. coli and S. aureus DNA gyrase and topoisomerase IV in an assay from Inspiralis on streptavidin-coated 96-well microtiter plates from Thermo scientific Pierce. […] After washing off the unbound oligonucleotide, the enzyme test was performed. […] Reaction solutions were incubated at 37° C. for 30 min. After that, the TF buffer (50 mM NaOAc with pH 5.0, 50 mM NaCl and 50 mM MgCl2) was added to terminate the enzymatic reaction. After additional incubation for 30 min at rt, during which biotin-oligonucleotide-plasmid triplex was formed, the unbound plasmid was washed off using TF buffer and SybrGOLD in T10 buffer (10 mM Tris HCl with pH 8.0 and 1 mM EDTA) was added. […] Initial screening was done at 100 or 10 nM concentration of inhibitors against E. coli DNA gyrase or 1 μM or 100 nM concentration against S. aureus DNA gyrase and E. coli and S. aureus topo IV. […] GraphPad Prism 6.0 software was used to calculate the IC50 values. The result is given as the average value of three independent measurements. […] Chemoth.

E. coli DNA gyrase = target: T2, E. coli DNA gyrase (Escherichia coli, UniProt P0AES6); assay: biochemical; details: for IC50: read-out: IC50
T2 construct: purchased Inspiralis
In short: (§1)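 Triplex-capture format: plasmid bound to a biotinylated oligonucleotide on streptavidin plates after reaction at 37 °C for 30 min. The reaction was stopped with TF buffer (50 mM NaOAc pH 5.0, 50 mM NaCl, 50 mM MgCl2), and captured DNA was stained with SybrGOLD. IC50 values are the mean of three independent measurements.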

E. coli topoisomerase IV = target: T3, E. coli topoisomerase IV (Escherichia coli, UniProt P20083); assay: biochemical; details: for remaining activity at 10 µM: 10 μM compound, read-out: RA (residual activity of the enzyme); for IC50: read-out: IC50
T3 construct: purchased Inspiralis
In short: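 Supercoiling/relaxation read via biotin-oligonucleotide triplex capture on streptavidin plates; reactions 30 min at 37° C, stopped with TF buffer pH 5.0, plasmid stained with SybrGOLD.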

[2] = test system: E. aerogenes (ATCC 13408); assay: Microbroth dilution MIC (CLSI); assay type: cell-based, Enterobacter aerogenes; details: Klebsiella aerogenes, ATCC13408
Description: The chemical entities described in the present invention were assessed for their antimicrobial activity using a microbroth dilution assay as recommended by the CLSI (Methods for Dilution Antimicrobial Susceptibility Tests for Bacteria That Grow Aerobically, and Methods for Antimicrobial Susceptibility Testing of Anaerobic Bacteria, Clinical and Laboratory Standards Institute, Document M07-A8, and M11-A8, Wayne, PA 19087, USA, 2012.). Compounds were dissolved by using 100% DMSO. Serial two-fold dilutions of each compound were made by using 100% DMSO as the diluent.
A library of Gram-negative and Gram-positive microbes and their drug- and multidrug-resistant variants were employed as test organisms. The MIC (minimum inhibitory concentration) was determined as the lowest concentration of an individual drug that lead to no visible growth.

[3] = test system: K. pneumoniae (ATCC 700603); assay: Microbroth dilution MIC (CLSI); assay type: cell-based; details: Klebsiella pneumoniae, ATCC700603
In short: (§2)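 MIC = lowest drug concentration with no visible growth, read in a CLSI broth microdilution format; two-fold serial dilutions prepared in 100% DMSO.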

S. aureus ATCC 29213 = assay: Microbroth dilution MIC (CLSI); assay type: cell-based; details: Staphylococcus aureus, ATCC29213
In short: as §2

P. aeruginosa ATCC 27853 = assay: Microbroth dilution MIC (CLSI); assay type: cell-based; details: Pseudomonas aeruginosa, ATCC27853
In short: as §2

[4] = test system: A. baumannii (ATCC 19606); assay: Microbroth dilution MIC (CLSI); assay type: cell-based; details: Acinetobacter baumannii, ATCC19606
In short: as §2

E. coli ATCC 25922 = assay: Microbroth dilution MIC (CLSI); assay type: cell-based; details: Escherichia coli, ATCC25922
In short: as §2

E. faecium (ATCC 35667) = assay: Microbroth dilution MIC (CLSI); assay type: cell-based; details: Enterococcus faecium, ATCC35667
In short: as §2

S. aureus DNA gyrase = target: T4, S. aureus DNA gyrase (Staphylococcus aureus, UniProt P0A0K8); assay: biochemical; details: for IC50: read-out: IC50; for remaining activity at 1 µM: 1 μM compound
T4 construct: purchased Inspiralis
In short: as §1

[5] = target: DNA gyrase from Mycobacterium tuberculosis (Mycobacterium tuberculosis, UniProt P9WG45); assay: Gel-based supercoiling assay; assay type: biochemical; details: M. tuberculosis DNA gyrase
From the text: Example compound 18 was additionally evaluated against DNA gyrase from Mycobacterium tuberculosis using a gel-based supercoiling assay.

E. faecalis ATCC 29212 = assay: Microbroth dilution MIC (CLSI); assay type: cell-based; details: Enterococcus faecalis, ATCC29212; E. faecalis ATCC 29212; read-out: MIC
In short: as §2

K. pneumoniae ATCC 10031 = assay: Microbroth dilution MIC (CLSI); assay type: cell-based; details: Klebsiella pneumoniae, ATCC10031; K. pneumoniae ATCC 10031; read-out: MIC
In short: as §2

[6] = test system: S. aureus ATCC 43300 (MRSA); assay: Microbroth dilution MIC (CLSI); assay type: cell-based; details: Staphylococcus aureus; S. aureus ATCC 43300 (MRSA); read-out: MIC
In short: as §2

[7] = test system: E. spp. cloacae ATCC 13047; assay: Microbroth dilution MIC (CLSI); assay type: cell-based; details: Enterobacter cloacae, ATCC13047; E. spp. cloacae ATCC 13047; read-out: MIC
In short: as §2

A. baumannii ATCC 17978 = assay: Microbroth dilution MIC (CLSI); assay type: cell-based; details: Acinetobacter baumannii, ATCC17978; A. baumannii ATCC 17978; read-out: MIC
In short: as §2

E. faecium ATCC 700221 = assay: Microbroth dilution MIC (CLSI); assay type: cell-based; details: Enterococcus faecium, ATCC700221; E. faecium ATCC 700221; read-out: MIC
In short: as §2

[8] = read-out: RA (residual activity of the enzyme)
[9] = E. aerogenes (ATCC 13408), read-out: MIC
[10] = K. pneumoniae (ATCC 700603), read-out: MIC
[11] = S. aureus ATCC 29213, read-out: MIC
[12] = P. aeruginosa ATCC 27853, read-out: MIC
[13] = A. baumannii (ATCC 19606), read-out: MIC
[14] = E. coli ATCC 25922, read-out: MIC
[15] = E. faecium (ATCC 35667), read-out: MIC
[16] = S. aureus DNA gyrase, read-out: RA (residual activity of the enzyme)

T1 sequence (P0C1U9 whole entry): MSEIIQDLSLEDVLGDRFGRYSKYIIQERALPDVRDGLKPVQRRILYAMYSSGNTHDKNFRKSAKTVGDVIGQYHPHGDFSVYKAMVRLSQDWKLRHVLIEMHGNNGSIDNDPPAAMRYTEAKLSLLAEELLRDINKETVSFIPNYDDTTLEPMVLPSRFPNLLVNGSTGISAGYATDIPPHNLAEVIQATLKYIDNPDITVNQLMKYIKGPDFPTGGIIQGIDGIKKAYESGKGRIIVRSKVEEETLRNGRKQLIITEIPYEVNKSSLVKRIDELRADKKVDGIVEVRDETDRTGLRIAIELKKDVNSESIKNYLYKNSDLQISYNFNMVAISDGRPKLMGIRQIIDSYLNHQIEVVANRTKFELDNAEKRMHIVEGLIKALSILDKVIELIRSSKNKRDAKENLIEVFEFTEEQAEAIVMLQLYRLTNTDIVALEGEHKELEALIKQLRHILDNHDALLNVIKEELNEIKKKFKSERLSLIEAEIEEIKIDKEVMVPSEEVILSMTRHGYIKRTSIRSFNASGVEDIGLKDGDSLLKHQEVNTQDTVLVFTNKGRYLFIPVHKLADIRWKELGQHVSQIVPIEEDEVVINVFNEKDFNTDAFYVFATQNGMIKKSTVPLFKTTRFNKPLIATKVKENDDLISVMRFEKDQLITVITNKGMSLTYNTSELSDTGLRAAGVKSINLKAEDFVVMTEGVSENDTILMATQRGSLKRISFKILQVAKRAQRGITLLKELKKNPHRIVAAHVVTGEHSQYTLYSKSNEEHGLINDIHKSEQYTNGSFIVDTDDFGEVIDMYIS
T1 sequence (P0C1S7 whole entry): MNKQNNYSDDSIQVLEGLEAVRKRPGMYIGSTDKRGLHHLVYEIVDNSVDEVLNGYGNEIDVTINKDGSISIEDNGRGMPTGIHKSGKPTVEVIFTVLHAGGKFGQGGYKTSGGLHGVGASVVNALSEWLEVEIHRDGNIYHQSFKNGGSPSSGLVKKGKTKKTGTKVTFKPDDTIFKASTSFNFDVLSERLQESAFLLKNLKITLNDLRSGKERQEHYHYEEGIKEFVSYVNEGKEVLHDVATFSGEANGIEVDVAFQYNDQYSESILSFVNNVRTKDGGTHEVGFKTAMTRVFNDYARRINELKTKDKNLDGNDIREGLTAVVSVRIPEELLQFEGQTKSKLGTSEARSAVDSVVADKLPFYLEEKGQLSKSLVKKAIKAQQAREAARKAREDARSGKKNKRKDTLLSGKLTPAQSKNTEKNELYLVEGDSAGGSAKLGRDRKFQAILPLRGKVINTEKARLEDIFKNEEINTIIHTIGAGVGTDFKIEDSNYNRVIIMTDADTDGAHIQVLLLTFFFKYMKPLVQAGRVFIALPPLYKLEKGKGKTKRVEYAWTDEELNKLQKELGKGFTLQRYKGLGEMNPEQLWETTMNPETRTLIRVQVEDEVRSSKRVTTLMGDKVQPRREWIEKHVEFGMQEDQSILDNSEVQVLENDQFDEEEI
T4 sequence (P20831 whole entry): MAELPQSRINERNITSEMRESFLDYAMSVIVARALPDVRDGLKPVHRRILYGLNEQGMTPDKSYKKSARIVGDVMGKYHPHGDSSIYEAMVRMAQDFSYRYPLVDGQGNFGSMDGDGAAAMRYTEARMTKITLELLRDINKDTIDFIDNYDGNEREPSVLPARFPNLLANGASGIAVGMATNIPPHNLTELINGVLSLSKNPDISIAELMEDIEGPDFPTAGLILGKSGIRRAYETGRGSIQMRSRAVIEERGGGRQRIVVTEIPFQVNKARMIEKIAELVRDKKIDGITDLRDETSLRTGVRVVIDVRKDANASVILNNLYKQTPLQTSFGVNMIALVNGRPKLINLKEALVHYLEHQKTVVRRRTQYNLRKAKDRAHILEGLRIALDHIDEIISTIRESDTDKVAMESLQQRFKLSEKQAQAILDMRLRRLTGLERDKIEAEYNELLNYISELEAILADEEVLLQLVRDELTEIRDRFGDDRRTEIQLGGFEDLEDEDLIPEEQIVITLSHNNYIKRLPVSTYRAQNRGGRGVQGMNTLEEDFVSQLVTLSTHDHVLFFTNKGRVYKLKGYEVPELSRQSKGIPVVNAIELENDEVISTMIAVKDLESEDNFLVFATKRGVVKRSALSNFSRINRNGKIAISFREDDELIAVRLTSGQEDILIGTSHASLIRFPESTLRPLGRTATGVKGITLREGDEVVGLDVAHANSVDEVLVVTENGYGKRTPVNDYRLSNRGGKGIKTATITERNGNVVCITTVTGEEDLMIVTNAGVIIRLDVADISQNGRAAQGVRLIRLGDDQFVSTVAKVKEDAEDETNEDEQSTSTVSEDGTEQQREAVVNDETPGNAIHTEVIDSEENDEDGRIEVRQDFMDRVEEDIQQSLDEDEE
T4 sequence (P0A0K8 whole entry): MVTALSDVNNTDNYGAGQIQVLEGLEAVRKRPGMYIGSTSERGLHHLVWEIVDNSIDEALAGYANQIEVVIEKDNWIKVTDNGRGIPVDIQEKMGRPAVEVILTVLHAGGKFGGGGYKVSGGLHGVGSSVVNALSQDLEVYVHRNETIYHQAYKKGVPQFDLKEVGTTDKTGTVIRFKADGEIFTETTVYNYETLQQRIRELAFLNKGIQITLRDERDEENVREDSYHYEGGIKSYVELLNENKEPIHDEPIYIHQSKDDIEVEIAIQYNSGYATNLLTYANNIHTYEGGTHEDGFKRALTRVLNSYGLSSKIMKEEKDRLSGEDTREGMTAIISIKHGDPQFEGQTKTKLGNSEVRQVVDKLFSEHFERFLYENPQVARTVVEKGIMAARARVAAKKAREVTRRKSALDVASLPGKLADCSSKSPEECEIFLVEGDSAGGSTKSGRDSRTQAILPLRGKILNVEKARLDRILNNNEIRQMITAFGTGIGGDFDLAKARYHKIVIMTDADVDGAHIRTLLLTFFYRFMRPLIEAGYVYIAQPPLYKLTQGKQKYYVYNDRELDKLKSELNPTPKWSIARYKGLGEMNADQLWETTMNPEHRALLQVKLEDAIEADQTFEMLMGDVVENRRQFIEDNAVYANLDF
T3 sequence (P0AFI2 whole entry): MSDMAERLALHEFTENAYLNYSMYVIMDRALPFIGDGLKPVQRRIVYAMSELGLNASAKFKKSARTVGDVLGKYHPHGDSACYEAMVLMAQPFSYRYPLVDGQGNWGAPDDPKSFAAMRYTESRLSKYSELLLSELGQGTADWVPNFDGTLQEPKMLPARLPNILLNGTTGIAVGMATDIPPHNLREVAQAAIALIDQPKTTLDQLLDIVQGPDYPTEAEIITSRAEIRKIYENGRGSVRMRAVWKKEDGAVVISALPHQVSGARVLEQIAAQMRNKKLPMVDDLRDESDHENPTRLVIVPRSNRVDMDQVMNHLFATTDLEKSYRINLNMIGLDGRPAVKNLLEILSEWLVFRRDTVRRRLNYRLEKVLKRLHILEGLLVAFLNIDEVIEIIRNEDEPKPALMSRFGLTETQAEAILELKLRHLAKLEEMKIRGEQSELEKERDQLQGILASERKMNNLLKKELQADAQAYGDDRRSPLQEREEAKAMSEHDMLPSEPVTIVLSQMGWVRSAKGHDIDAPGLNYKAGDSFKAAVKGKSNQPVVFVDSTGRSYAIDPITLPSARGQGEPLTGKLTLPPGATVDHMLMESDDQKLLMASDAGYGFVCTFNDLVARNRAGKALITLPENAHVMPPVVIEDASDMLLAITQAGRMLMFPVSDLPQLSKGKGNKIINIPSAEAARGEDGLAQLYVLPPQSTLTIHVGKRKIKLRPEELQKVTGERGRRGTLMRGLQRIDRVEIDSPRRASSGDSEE
T3 sequence (P20083 whole entry): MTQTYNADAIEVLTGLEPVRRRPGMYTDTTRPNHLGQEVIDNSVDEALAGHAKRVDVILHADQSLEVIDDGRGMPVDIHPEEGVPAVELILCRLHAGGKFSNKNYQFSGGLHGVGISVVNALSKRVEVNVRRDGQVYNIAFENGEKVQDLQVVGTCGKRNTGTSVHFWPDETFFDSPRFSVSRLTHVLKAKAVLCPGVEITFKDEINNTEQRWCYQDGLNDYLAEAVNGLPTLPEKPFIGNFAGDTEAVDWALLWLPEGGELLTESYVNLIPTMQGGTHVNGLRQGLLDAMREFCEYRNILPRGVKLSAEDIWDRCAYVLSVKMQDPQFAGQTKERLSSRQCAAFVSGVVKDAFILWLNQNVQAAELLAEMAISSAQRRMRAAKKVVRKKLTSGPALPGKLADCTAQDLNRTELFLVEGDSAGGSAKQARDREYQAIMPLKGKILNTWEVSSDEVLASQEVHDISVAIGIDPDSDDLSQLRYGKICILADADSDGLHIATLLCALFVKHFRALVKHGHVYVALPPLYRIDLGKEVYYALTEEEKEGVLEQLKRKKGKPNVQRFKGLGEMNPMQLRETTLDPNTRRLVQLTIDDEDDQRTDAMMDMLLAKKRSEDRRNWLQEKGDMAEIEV

Compound	remaining activity at 10 µM [1, 8]	IC50 (E. coli DNA gyrase; E. coli DNA gyrase)	remaining activity at 10 µM (E. coli topoisomerase IV; E. coli topo IV)	MIC [2, 9]	MIC [3, 10]	MIC (S. aureus ATCC 29213; [11])	MIC (P. aeruginosa ATCC 27853; [12])	MIC [4, 13]	MIC (E. coli ATCC 25922; [14])	MIC (E. faecium (ATCC 35667); [15])	IC50 [1]	other results
Cl.O=C(O)CNC(=O)c1ccc(NC(=O)c2cc(Br)c(Br)[nH]2)c(N2CCNCC2)c1 [Example 39, 4-(5-((Carboxymethyl)carbamoyl)-2-(4,5-dibromo-1H-pyrrole-2-carboxamido)phenyl)piperazin-1-ium chloride]	73%	841 nM	97%	≥ 64 µg/mL	≥ 64 µg/mL	≥ 64 µg/mL	≥ 64 µg/mL	≥ 64 µg/mL	≥ 64 µg/mL	≥ 64 µg/mL	–	–
Cc1[nH]c(C(=O)Nc2ccc(C(=O)NCC(=O)O)cc2N2CCNCC2)c(Cl)c1Cl.Cl [Example 36, 4-(5-((Carboxymethyl)carbamoyl)-2-(3,4-dichloro-5-methyl-1H-pyrrole-2-carboxamido)phenyl)piperazin-1-ium chloride]	–	40.3 nM	-43%	≥ 64 µg/mL	≥ 64 µg/mL	≥ 64 µg/mL	≥ 64 µg/mL	≥ 64 µg/mL	≥ 64 µg/mL	≥ 64 µg/mL	4190 nM	IC50 (S. aureus DNA gyrase; S. aureus DNA gyrase): 621 nM
Cc1[nH]c(C(=O)Nc2ccc(-c3n[nH]c(=O)o3)cc2N2CCC[C@H](N)C2)c(Cl)c1Cl.Cl [Example 18, (S)-1-(2-(3,4-Dichloro-5-methyl-1H-pyrrole-2-carboxamido)-5-(5-oxo-4,5-dihydro-1,3,4-oxadiazol-2-yl)phenyl)piperidin-3-aminium chloride]	–	27.2 nM	–	–	–	2 µg/mL	64 µg/mL	–	16 µg/mL	–	406 nM	remaining activity at 0.1 µM (S. aureus DNA gyrase; S. aureus DNA gyrase, 0.1 μM compound, read-out: RA (residual activity of the enzyme)): 41%; remaining activity at 1 µM (S. aureus DNA gyrase; [16]): 11%; IC50 [5]: 26.5 ± 2.1 nM; MIC (E. faecalis ATCC 29212): 2 µg/mL; MIC (K. pneumoniae ATCC 10031): 0.25 µg/mL; MIC [6]: 4 µg/mL; MIC [7]: > 64 µg/mL; MIC (A. baumannii ATCC 17978): 16 µg/mL
Cc1[nH]c(C(=O)Nc2ccc(C(=O)O)cc2N2CCNCC2)c(Cl)c1Cl [Example 12, 4-(5-Carboxy-2-(3,4-dichloro-5-methyl-1H-pyrrole-2-carboxamido)phenyl)piperazin-1-ium chloride]	-17%	–	-18%	–	–	≥ 64 µg/mL	≥ 64 µg/mL	–	≥ 64 µg/mL	–	–	remaining activity at 1 µM (E. coli DNA gyrase; E. coli DNA gyrase, 1 μM compound, read-out: RA (residual activity of the enzyme)): 67%; MIC [2]: ≥ 64 µg/mL; MIC [3]: ≥ 64 µg/mL; MIC [4]: ≥ 64 µg/mL; MIC (E. faecium (ATCC 35667)): ≥ 64 µg/mL
Cc1[nH]c(C(=O)Nc2ccc(-c3nnn[nH]3)cc2N2CCOCC2)c(Cl)c1Cl [Example 10, 3,4-Dichloro-5-methyl-N-(2-morpholino-4-(2H-tetrazol-5-yl)phenyl)-1H-pyrrole-2-carboxamide]	–	44.5 nM	–	≥ 64 µg/mL	≥ 64 µg/mL	≥ 64 µg/mL	≥ 64 µg/mL	≥ 64 µg/mL	≥ 64 µg/mL	10 µg/mL (≈ 23.7 µM)	–	remaining activity at 0.1 µM ([1]; 0.1 μM compound, read-out: RA (residual activity of the enzyme)): 101%; remaining activity at 1 µM ([1]; 1 μM compound, read-out: RA (residual activity of the enzyme)): 7%; MIC (K. pneumoniae ATCC 10031): ≥ 64 µg/mL; MIC [6]: ≥ 64 µg/mL; MIC [7]: ≥ 64 µg/mL; MIC (E. faecium ATCC 700221): ≥ 64 µg/mL; MIC (A. baumannii ATCC 17978): ≥ 64 µg/mL
Cl.N[C@H]1CCN(c2cc(C(=O)NCC(=O)O)ccc2NC(=O)c2cc(Br)c(Br)[nH]2)C1 [Example 38, (S)-1-(5-((Carboxymethyl)carbamoyl)-2-(4,5-dibromo-1H-pyrrole-2-carboxamido)phenyl)pyrrolidin-3-aminium chloride]	91%	35.7 nM	84%	≥ 64 µg/mL	≥ 64 µg/mL	≥ 64 µg/mL	≥ 64 µg/mL	≥ 64 µg/mL	≥ 64 µg/mL	≥ 64 µg/mL	–	remaining activity at 10 µM (S. aureus DNA gyrase; S. aureus DNA gyrase, 10 μM compound, read-out: RA (residual activity of the enzyme)): 46%
Cc1[nH]c(C(=O)Nc2ccc(C(=O)NCc3n[nH]c(=O)o3)cc2N2CCNCC2)c(Cl)c1Cl.Cl [Example 40, 4-(2-(3,4-Dichloro-5-methyl-1H-pyrrole-2-carboxamido)-5-(((5-oxo-4,5-dihydro-1,3,4-oxadiazol-2-yl)methyl)carbamoyl)phenyl)piperazin-1-ium chloride]	–	22.4 nM	–	≥ 64 µg/mL	≥ 64 µg/mL	≥ 64 µg/mL	≥ 64 µg/mL	≥ 64 µg/mL	≥ 64 µg/mL	≥ 64 µg/mL	2700 nM	remaining activity at 1 µM (S. aureus DNA gyrase; [16]): 37%; IC50 (E. coli topoisomerase IV; E. coli topo IV): 2970 nM
Cc1[nH]c(C(=O)Nc2ccc(C(=O)NCC(=O)O)cc2N2CC[C@@H](N)C2)c(Cl)c1Cl [Example 34, (R)-1-(5-((Carboxymethyl)carbamoyl)-2-(3,4-dichloro-5-methyl-1H-pyrrole-2-carboxamido)phenyl)pyrrolidin-3-aminium chloride]	–	–	–	–	–	–	–	–	–	–	2030 nM	IC50 (S. aureus DNA gyrase): 1240 nM; IC50 (E. coli DNA gyrase): 21.3 nM; IC50 (E. coli topoisomerase IV): 2370 nM; MIC [2]: ≥ 64 µg/mL; MIC [3]: ≥ 64 µg/mL; MIC (S. aureus ATCC 29213): ≥ 64 µg/mL; MIC (P. aeruginosa ATCC 27853): ≥ 64 µg/mL; MIC [4]: ≥ 64 µg/mL; MIC (E. coli ATCC 25922): ≥ 64 µg/mL; MIC (E. faecium (ATCC 35667)): ≥ 64 µg/mL

Reference: US20250002455A1, “NEW N-PHENYLPYRROLAMIDE INHIBITORS OF DNA GYRASE AND TOPOISOMERASE IV WITH ANTIBACTERIAL ACTIVITY” (priority 2020, published 2025)
